“Also recorded” adds a separate entry of the source. Read-outs that look alike come from different tables or passages of the source.
How the values were obtained:
[1] = test system: CD40 cell surface protein expression; conditions: read-out: IC50, CD40 cell surface protein expression; flow cytometry, FITC labeled antiCD40 antibody; cited from earlier work
[2] = test system: PTEN mRNA; experiment: Quantitative RT-PCR analysis of PTEN mRNA splicing in mouse tissues; type: in vivo, Balb/c mice; conditions: for PTEN mRNA in liver, quantitative RT-PCR: i.p. 3x/wk, 7 at 25 mg/kg, 1 at 40 mg/kg, PNAs 10 or 40 mg/kg
[3] = test system: PTEN RNA; experiment: Quantitative RT-PCR of PTEN RNA splicing in BCL1 cells; type: cell-based, murine; conditions: data not shown
[4] = Tolerability in mice
[5] = test system: PTEN protein; experiment: Western blot analysis of PTEN protein in mouse tissues; type: in vivo, Balb/c mice; conditions: 7 at 25 mg/kg, i.p. 3x/wk, 2 wks
[6] = test system: PTEN; conditions: mice, determined in a previous study, cited from earlier work
[7] = amphipathic peptide study, dosing as in Table 6

CACAGATGACATTAG-Lys [Compound 8]
IC50 [1]: 900 nM

(Lys)2-TKCTCAGCACATCTACA-Lys [Compound 10]
PTEN mRNA splicing in white adipose tissue, quantitative RT-PCR ([2]; 10 or 40 mg/kg i.p., 3x/wk, 2 wks): marginal with the alternatively spliced isoform being upregulated but the full length transcript being unaltered; also recorded: inactive at both doses

CTCAGCACATCTACA-Lys [Compound 3]
alteration of splicing of PTEN RNA [3]: full length transcript was reduced and the alternatively spliced product was enhanced

D-(KKLLKAALKLAKKG)-TKCTCAGCACATCTACA-Lys [Compound 14]
PTEN splicing activity in adipose tissue, quantitative RT-PCR [2, 7]: showed activity at the low dose | PTEN splicing activity in kidney, quantitative RT-PCR [2, 7]: comparable to the octa(L-lysine) conjugate 9, even when administered at an approximately 4.5-fold lower dose | histopathological examination of the kidneys, low dose group ([4]; 8.25 mg/kg i.p., 3x/wk, 2 wks): nephrotoxicity with proximal tubule necrosis and regeneration | liver morphology, high dose group ([4]; 33 mg/kg i.p.): appeared normal | spleen size, high dose group ([4]; 33 mg/kg i.p.): drastically reduced spleen sizes | histopathological examination of the kidneys, high dose group ([4]; 33 mg/kg i.p., single administration): profound proximal tubule necrosis and proteinacous accumulation in Henle’s loop and collecting tubules | body weight, high dose group ([4]; 33 mg/kg i.p., arm terminated prematurely): rapid weight loss after administration of the first dose, indicative of acute toxicity

7: antiPTEN phosphorothioate oligonucleotide with 2′-O-MOE wings and a 2′-deoxyribonucleotide gap, CTGCTAGCCTCTGGATTTGA, exon 9 [Compound 7]
PTEN mRNA in liver, quantitative RT-PCR ([2]; 2 wks): downregulation of total PTEN message (both isoforms) | PTEN protein in adipose tissue, western blot ([5]; 9 at high dose (40 mg/kg)): significant and comparable downregulation of PTEN protein | PTEN protein expression in liver, western blot ([5]; PNAs 10 or 40 mg/kg): significant inhibition of PTEN protein expression | EC50 ([6]; read-out: Adipose EC50): 0.7 to 1.4 µM | EC50 ([6]; read-out: Liver EC50): 14 µM

1: uniform 2′-O-MOE phosphorothioate 20-mer CTCAGCACATCTACAAGAAA, PTEN intron 3:exon 4 (all 2'-MOE, all phosphorothioate, methylation of C not given here) [Compound 1, reference compound]
PTEN mRNA in liver, quantitative RT-PCR ([2]; 2 wks): modest downregulation of full length transcript with upregulation of the alternatively spliced product

— PMC3072269 (Journal of medicinal chemistry, 2010)
